Our source for the IC50 values is PubChem BioAssay AID749 (The Scripps Research Institute Molecular Screening Center, 2007).

Usually IC50 stands for the point on the concentration scale where inhibition reaches its midpoint.

Activity calls are given as the source filed them.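 The calls were made as follows: active = IC50 at or below 10 micromolar; inactive = IC50 above 10 micromolar.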

Sequence of 5-hydroxytryptamine receptor 1E (Homo sapiens) (P28566 whole entry, looked up): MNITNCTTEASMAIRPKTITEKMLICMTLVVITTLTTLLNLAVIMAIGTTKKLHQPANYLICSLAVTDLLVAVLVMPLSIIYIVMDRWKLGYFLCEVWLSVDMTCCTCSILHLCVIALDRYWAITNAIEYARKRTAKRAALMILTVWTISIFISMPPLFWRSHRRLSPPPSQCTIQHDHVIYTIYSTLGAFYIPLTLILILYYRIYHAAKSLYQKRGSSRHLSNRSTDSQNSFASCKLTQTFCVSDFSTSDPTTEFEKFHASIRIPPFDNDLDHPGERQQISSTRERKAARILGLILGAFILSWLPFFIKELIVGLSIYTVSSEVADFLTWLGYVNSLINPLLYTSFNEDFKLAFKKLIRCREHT

The experiment has as its target 5-hydroxytryptamine receptor 1E (Homo sapiens) (UniProt P28566). The experiment is described as follows: 5-HT1E receptor antagonist potency, dose response, cell-based (AID 749). The note with it: CHO 5-HT1E Ga15 NFAT-BLA reporter, FRET.
Take `N#C/C(=C/c1ccc(N2CCCCCC2)o1)c1ccc(F)cc1`: the IC50 is 5.2 µM.

For the compound `CCN(CC)c1ccc2c(Cl)c(Br)c(=O)oc2c1`, the IC50 was 0.999 µM.

Turning to `CCOc1cccc(-c2nnc3n2N=C(c2cc(OC)ccc2OC)CS3)c1`, the IC50 was > 32.7 µM (inactive).

For the compound `CC(=O)Oc1ccc(N2C(=O)C3C(C2=O)C2(C)C=CC3(C)O2)cc1` (configuration not stated), the IC50 was 2.62 µM.

As to `COc1ccc(-n2nnnc2S(=O)(=O)CC(=O)N2CCCCC2)cc1`, the IC50 is 2.61 µM.

For the compound `O=C(Nc1ccc(-c2nc3ncccc3o2)cc1)c1ccc(Br)o1`, the IC50 was > 50 µM (inactive).

In the case of `CN(C)c1nc(OCCNC(=O)COc2ccc(Cl)cc2Cl)nc(N2CCCCC2)n1`, the IC50 was > 50 µM (inactive).

For `Cn1c(-c2c(N)n(C3CCCC3)c3nc4ccccc4nc23)nc2ccccc21`, the IC50 was 3.64 µM.

Consider `COc1ccccc1-c1nnc2n1N=C(c1ccc(O)c(O)c1)CS2`, for which the IC50 is > 50 µM (inactive).

For `COc1cc2c(cc1OC)C1=C(C#N)CC/C(=N\S(=O)(=O)c3ccccc3)N1CC2`, the IC50 is > 50 µM (inactive).

Turning to `COCCOC(=O)c1[nH]c2c(c1C)C(=O)CC(c1ccccc1)C2` (configuration not stated), the IC50 was > 50 µM (inactive).

Take `CCC(NC(=O)Nc1nnc(C(F)(F)F)s1)(C(F)(F)F)C(F)(F)F`: the IC50 entry is “inactive”.

In the case of `CSc1ccccc1N=CC1=C(O)CC(C)(C)CC1=O`, the IC50 is 2.35 µM.

Take `COc1cccc(N2CCN(c3ncnc4c3cnn4-c3ccc(C)cc3C)CC2)c1`: the half-maximal inhibitory concentration (IC50) is 6.99 µM.

In the case of `COc1ccc(N2C(=O)CC(NCc3ccncc3)C2=O)cc1` (configuration not stated), the IC50 was > 50 µM (inactive).

Regarding `CCn1nc(-c2ccccc2)nc2c(=O)n(C)c(=O)nc1-2`, the IC50 was > 50 µM (inactive).

In the case of `COc1cccc(N2CCN(c3ncnc4c3[nH]c3ccc(F)cc34)CC2C)c1` (configuration not stated), the 50% inhibitory concentration (IC50) is 1.82 µM.

`CS(=O)(=O)c1nc(-c2cccs2)cc(C(F)(F)F)n1`: the IC50 was 1.93 µM.

With `CCCOc1ccc2nc(NC(=O)OC)[nH]c2c1`, the IC50 was > 50 µM (inactive).

Consider `Cc1ccc(-n2nc3c([n+]2[O-])CCc2c-3no[n+]2[O-])cc1`, for which the IC50 is 3.9 µM.

On to `CS(=O)(=O)c1nc(-c2ccccc2)cc(C(F)(F)F)n1`, for which the IC50 is 2.13 µM.

For `CS(=O)(=O)c1nc(-c2ccco2)cc(C(F)(F)F)n1`, the half-inhibitory concentration (IC50) was 2.26 µM.

`CCn1c(=O)c(C(=O)Nc2nc3ccccc3[nH]2)c(O)c2ccccc21`: the IC50 result was “inactive”.

`O=S1(=O)C=C(Sc2nnc(-c3ccccc3)o2)c2ccccc21`: the IC50 was 1.04 µM.

Turning to `COc1cc(NS(=O)(=O)c2ccc(C)cc2)c2ncccc2c1`, the IC50 is 3.75 µM.

As for `COC(=O)Nc1nc2ccc(Sc3ccccc3)cc2[nH]1`, the IC50 was > 50 µM (inactive).

With `Clc1ccc(-n2nnnc2Sc2ncnc3sccc23)cc1`, the IC50 is 3.5 µM.

In the case of `N#CCCS(=O)(=O)c1nnnn1-c1ccccc1`, the IC50 was 2.79 µM.

With `CCOc1ccc(C2=Nn3c(nnc3-c3ccccc3OC)SC2)cc1`, the IC50 is > 50 µM (inactive).

For the compound `CCCc1nnc2n1N=C(c1ccc(OC)c(OC)c1)CS2`, the IC50 was > 50 µM (inactive).

Turning to `CCCOCCOC(=O)c1[nH]c2c(c1C)C(=O)CC(c1cc(OC)ccc1OC)C2` (configuration not stated), the IC50 is > 50 µM (inactive).

For `COc1ccc(-c2cc(C(F)(F)F)nc(S(C)(=O)=O)n2)cc1OC`, the IC50 was 2.91 µM.

With `CCn1nc(-c2cccs2)nc2c(=O)n(C)c(=O)nc1-2`, the half-maximal inhibitory concentration (IC50) was 0.629 µM.

`COc1cc2c(cc1OC)-c1cc(N3CCCc4ccccc43)nc(=O)n1CC2`: the IC50 was > 50 µM (inactive).

As to `COc1ccc(C2N(c3ccc(F)cc3)C(=O)C3CCCN32)cc1` (configuration not stated), the IC50 is > 38.2 µM (inactive).

Take `Cc1ccc(S(=O)(=O)Nc2cccc3ncccc23)s1`: the IC50 is 2.91 µM.

Take `COC(=O)/C(=C1/Oc2cc(C)oc(=O)c2S1)C(F)(F)F`: the IC50 was 1.86 µM.

Take `CC(C)=CCC(C)(C)CNC(=O)NC1CCCCC1`: the IC50 was > 50 µM (inactive).

Take `CC(=O)Nc1cc(OC(C)=O)c2nonc2c1OC(C)=O`: the IC50 was 2.1 µM.

Regarding `O=C(Nc1ccc(N2CCOCC2)cc1)Nc1ccc2nc(-c3ccco3)c(-c3ccco3)nc2c1`, the IC50 is > 17.2 µM (inactive).

`O=C1C2C3C=CC(CO)(O3)C2C(=O)N1c1ccc(-c2ccccc2)cc1` (configuration not stated): the half-inhibitory concentration (IC50) is 4.91 µM.

For the compound `COc1cccc(N2CCN(c3ncnc4c3[nH]c3ccccc34)CC2C)c1` (configuration not stated), the IC50 was 8.24 µM.
